Earlier results as cited in patent US20140356423A1, “FORMULATIONS OF LYCOPENE IN COMBINATION WITH BISPHOSPHONATES BONE RESORPTION INHIBITORS” (priority 2013, published 2014).
Where two headings read alike, the source gives them in different places.

How the values were obtained:
[1] = tablet not taken with enough water, or patient not upright for approximately one-half hour after taking
[2] = taken either concurrently with or 2 hours after breakfast
[3] = tested on: alkaline phosphatase activity
[4] = tested on: osteoblast-like SaOS-2 cells

impairment of availability [2] [%] | alkaline phosphatase activity ([3]; more mature cells grown in the presence of dexamethasone (SaOS+Dex cells)) | alkaline phosphatase activity ([3]; younger cells grown in the absence of dexamethasone (SaOS-Dex cells), depending on the time of addition) | SMILES | side effects [1] | proliferation of osteoblast-like SaOS-2 cells [4]
> 85 |  |  | NCCCC(O)(P(=O)(O)O)P(=O)(O)O [alendronate, 4-amino-1-hydroxybutylidene-1,1-biphosphonic acid] | esophageal irritation and erosion | 
 | stimulate alkaline phosphatase activity | inhibited or had no effect | CC(C)=CCC/C(C)=C/C=C/C(C)=C/C=C/C(C)=C/C=C/C=C(C)/C=C/C=C(C)/C=C/C=C(\C)CCC=C(C)C [lycopene] |  | stimulated the proliferation
